Reference: patent US9469615B2, “Quinoxalines and AZA-quinoxalines as CRTH2 receptor modulators” (Merck Sharp & Dohme Corp., priority 2010, dated 2016)

Each compound was assayed against T1, hCRTH2 (Homo sapiens, UniProt Q9Y5Y4) (assay: Radioligand binding assay ([3H]PGD2 competition, HEK-hCRTH2 membranes)). Conditions: [3H]PGD2 competition, Table B.
T1 construct: expressed in transfected cells; host or cells: HEK (human embryonic kidney) cells expressing hCRTH2; membrane preparation
T1 sequence (Q9Y5Y4 1-395): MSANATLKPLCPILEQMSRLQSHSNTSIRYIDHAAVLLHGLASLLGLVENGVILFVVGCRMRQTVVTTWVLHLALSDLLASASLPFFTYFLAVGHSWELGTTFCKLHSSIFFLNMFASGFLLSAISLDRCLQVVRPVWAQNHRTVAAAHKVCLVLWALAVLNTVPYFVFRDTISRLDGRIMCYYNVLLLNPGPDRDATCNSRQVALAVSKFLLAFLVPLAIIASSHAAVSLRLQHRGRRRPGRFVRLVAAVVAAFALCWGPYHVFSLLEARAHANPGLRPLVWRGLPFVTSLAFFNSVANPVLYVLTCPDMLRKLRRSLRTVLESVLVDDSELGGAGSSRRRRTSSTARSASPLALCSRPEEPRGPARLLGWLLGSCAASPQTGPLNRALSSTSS
Outline: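 Competition against 3.0 nM [3H]PGD2 was run for 60 min at room temperature in pH 7.4 Tris-HCl buffer with EDTA, 2 mM MnCl2 and 1% DMSO, using 8-20 μg HEK-hCRTH2 membrane protein. 10 μM PGD2 set non-specific binding; filter-bound counts were read by scintillation.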

Row | Structure (SMILES) | Ki [nM]
1 | CS(=O)(=O)N1CCC(NC(=O)c2ccc3nc(-c4ccc(Cl)cc4)c(CCCCC(=O)O)nc3c2)c2ccccc21 (stereo not shown) [compound 605, 5-(3-(4-chlorophenyl)-7-((1-(methylsulfonyl)-1,2,3,4-tetrahydroquinolin-4-yl)carbamoyl)quinoxalin-2-yl)pentanoic acid] | 0.1 to 2
2 | O=C(O)CCCCc1nc2cc(C(=O)N3CCN(c4cccc(C(F)(F)F)c4)CC3)ccc2nc1-c1ccc(Cl)cc1 [compound 610, 5-(3-(4-chlorophenyl)-7-(4-(3-(trifluoromethyl)phenyl)piperazine-1-carbonyl)quinoxalin-2-yl)pentanoic acid] | 0.1 to 2
3 | CCCCN(CCC)C(=O)c1ccc2nc(-c3ccc(Cl)cc3)c(CCCCC(=O)O)nc2c1 [compound 611, 5-(7-(butyl(propyl)carbamoyl)-3-(4-chlorophenyl)quinoxalin-2-yl)pentanoic acid] | 2.1 to 20
4 | O=C(O)CCCCc1nc2cc(C(=O)N[C@H]3CCOc4cc(F)ccc43)ccc2nc1-c1ccc(Cl)cc1 [compound 612, (S)-5-(3-(4-chlorophenyl)-7-((7-fluorochroman-4-yl)carbamoyl)quinoxalin-2-yl)pentanoic acid] | 0.1 to 2
5 | O=C(O)CCCCc1nc2cc(C(=O)N3CCO[C@@H](c4ccc(C(F)(F)F)cc4)C3)ccc2nc1-c1ccc(Cl)cc1 [compound 615, (S)-5-(3-(4-chlorophenyl)-7-(2-(4-(trifluoromethyl)phenyl)morpholine-4-carbonyl)quinoxalin-2-yl)pentanoic acid] | 2.1 to 20
6 | O=C(O)CCCCc1nc2cc(C(=O)N3CCO[C@H](c4ccc(C(F)(F)F)cc4)C3)ccc2nc1-c1ccc(Cl)cc1 [compound 616, (R)-5-(3-(4-chlorophenyl)-7-(2-(4-(trifluoromethyl)phenyl)morpholine-4-carbonyl)quinoxalin-2-yl)pentanoic acid] | 20.1 to 200
7 | O=C(O)CCCCc1nc2cc(C(=O)N[C@@H]3CCCc4ccncc43)ccc2nc1-c1ccc(Cl)cc1 [compound 617] | 0.1 to 2
8 | O=C(O)CCCCc1nc2cc(C(=O)N[C@H]3CCCc4ccncc43)ccc2nc1-c1ccc(Cl)cc1 [compound 618, (S)-5-(3-(4-chlorophenyl)-7-((5,6,7,8-tetrahydroisoquinolin-8-yl)carbamoyl)quinoxalin-2-yl)pentanoic acid] | 0.1 to 2
9 | Cc1ccc(N2CCN(C(=O)c3ccc4nc(-c5ccc(Cl)cc5)c(CCCCC(=O)O)nc4c3)CC2)cc1C [compound 621, 5-(3-(4-chlorophenyl)-7-(4-(3,4-dimethylphenyl)piperazine-1-carbonyl)quinoxalin-2-yl)pentanoic acid] | 0.1 to 2
10 | COc1ccc(N2CCN(C(=O)c3ccc4nc(-c5ccc(Cl)cc5)c(CCCCC(=O)O)nc4c3)CC2)cc1 [compound 622, 5-(3-(4-chlorophenyl)-7-(4-(4-methoxyphenyl)piperazine-1-carbonyl)quinoxalin-2-yl)pentanoic acid] | 2.1 to 20
11 | N#Cc1ccc(N2CCN(C(=O)c3ccc4nc(-c5ccc(Cl)cc5)c(CCCCC(=O)O)nc4c3)CC2)cc1 [compound 623, 5-(3-(4-chlorophenyl)-7-(4-(4-cyanophenyl)piperazine-1-carbonyl)quinoxalin-2-yl)pentanoic acid] | 2.1 to 20
12 | O=C(O)CCCCc1nc2cc(C(=O)N3CCN(c4ccc(Cl)c(Cl)c4)CC3)ccc2nc1-c1ccc(Cl)cc1 [compound 624, 5-(3-(4-chlorophenyl)-7-(4-(3,4-dichlorophenyl)piperazine-1-carbonyl)quinoxalin-2-yl)pentanoic acid] | 0.1 to 2
13 | CN(Cc1cccnc1)C(=O)c1ccc2nc(-c3ccc(Cl)cc3)c(CCCCC(=O)O)nc2c1 [compound 625, 5-(3-(4-chlorophenyl)-7-(methyl(pyridin-3-ylmethyl)carbamoyl)quinoxalin-2-yl)pentanoic acid] | 2.1 to 20
14 | Cc1cccc(N2CCN(C(=O)c3ccc4nc(-c5ccc(Cl)cc5)c(CCCCC(=O)O)nc4c3)CC2)c1C [compound 627, 5-(3-(4-chlorophenyl)-7-(4-(2,3-dimethylphenyl)piperazine-1-carbonyl)quinoxalin-2-yl)pentanoic acid] | 0.1 to 2

Results, then the compound that gave them:

Row | Ki [nM] | Structure (SMILES)
15 | 0.1 to 2 | N#CC1(c2ccccc2)CCN(C(=O)c2ccc3nc(-c4ccc(Cl)cc4)c(CCCCC(=O)O)nc3c2)C1 (stereo not shown) [compound 604, 5-(3-(4--chlorophenyl)-7-(3-cyano-3-phenyl-pyrrolidine-1-carbonyl)quinoxalin-2-yl)pentanoic acid]
16 | 2.1 to 20 | O=C(O)CCCCc1nc2cc(C(=O)N3CC(c4ccc(F)cc4)C3)ccc2nc1-c1ccc(Cl)cc1 [compound 606, 5-(3-(4-chlorophenyl)-7-(3-(4-fluorophenyl)azetidine-1-carbonyl)quinoxalin-2-yl)pentanoic acid]
17 | 0.1 to 2 | O=C(O)CCCCc1nc2cc(C(=O)N3Cc4ccccc4C3)ccc2nc1-c1ccc(Cl)cc1 [compound 607, 5-(3-(4-chlorophenyl)-7-(isoindoline-2-carbonyl)quinoxalin-2-yl)pentanoic acid]
18 | 2.1 to 20 | O=C(O)CCCCc1nc2cc(C(=O)N3CCc4c([nH]c5ccccc45)C3)ccc2nc1-c1ccc(Cl)cc1 [compound 608, 5-(3-(4-chlorophenyl)-7-(2,3,4,9-tetrahydro-1H-pyrido[3,4-b]indole-2-carbonyl)quinoxalin-2-yl)pentanoic acid]
19 | 0.1 to 2 | O=C(O)CCCCc1nc2cc(C(=O)N3CCN(c4ccccc4Cl)CC3)ccc2nc1-c1ccc(Cl)cc1 [compound 609, 5-(3-(4-chlorophenyl)-7-(4-(2-chlorophenyl)piperazine-1-carbonyl)quinoxalin-2-yl)pentanoic acid]
20 | 20.1 to 200 | O=C(O)CCCCc1nc2cc(C(=O)N3CCO[C@@H](c4ccc(F)cc4)C3)ccc2nc1-c1ccc(Cl)cc1 [compound 613, (S)-5-(3-(4-chlorophenyl)-7-(2-(4-fluorophenyl)morpholine-4-carbonyl)quinoxalin-2-yl)pentanoic acid]
21 | 2.1 to 20 | O=C(O)CCCCc1nc2cc(C(=O)N3CCO[C@H](c4ccc(F)cc4)C3)ccc2nc1-c1ccc(Cl)cc1 [compound 614, (R)-5-(3-(4-chlorophenyl)-7-(2-(4-fluorophenyl)morpholine-4-carbonyl)quinoxalin-2-yl)pentanoic acid]
22 | 0.1 to 2 | Cc1ccccc1N1CCN(C(=O)c2ccc3nc(-c4ccc(Cl)cc4)c(CCCCC(=O)O)nc3c2)CC1 [compound 619, 5-(3-(4-chlorophenyl)-7-(4-(o-tolyl)piperazine-1-carbonyl)quinoxalin-2-yl)pentanoic acid]
23 | 0.1 to 2 | Cc1cccc(N2CCN(C(=O)c3ccc4nc(-c5ccc(Cl)cc5)c(CCCCC(=O)O)nc4c3)CC2)c1 [compound 620, 5-(3-(4-chlorophenyl)-7-(4-(m-tolyl)piperazine-1-carbonyl)quinoxalin-2-yl)pentanoic acid]
24 | 2.1 to 20 | O=C(O)CCCCc1nc2cc(C(=O)N3CCC(n4c(=O)[nH]c5ccccc54)CC3)ccc2nc1-c1ccc(Cl)cc1 [compound 626, 5-(3-(4-chlorophenyl)-7-(4-(2-oxo-2,3-dihydro-1H-benzo[d]imidazol-1-yl)piperidine-1-carbonyl)quinoxalin-2-yl)pentanoic acid]
25 | 0.1 to 2 | Cc1cccc(C)c1N1CCN(C(=O)c2ccc3nc(-c4ccc(Cl)cc4)c(CCCCC(=O)O)nc3c2)CC1 [compound 628, 5-(3-(4-chlorophenyl)-7-(4-(2,6-dimethylphenyl)piperazine-1-carbonyl)quinoxalin-2-yl)pentanoic acid]
